Molecular target: T1, human GOAT (Homo sapiens, UniProt Q96T53)
T1 construct: His; made in house; host or cells: Sf9 insect cells (baculovirus, pAN51 vector); microsomal membrane preparation
T1 sequence (Q96T53 1-435): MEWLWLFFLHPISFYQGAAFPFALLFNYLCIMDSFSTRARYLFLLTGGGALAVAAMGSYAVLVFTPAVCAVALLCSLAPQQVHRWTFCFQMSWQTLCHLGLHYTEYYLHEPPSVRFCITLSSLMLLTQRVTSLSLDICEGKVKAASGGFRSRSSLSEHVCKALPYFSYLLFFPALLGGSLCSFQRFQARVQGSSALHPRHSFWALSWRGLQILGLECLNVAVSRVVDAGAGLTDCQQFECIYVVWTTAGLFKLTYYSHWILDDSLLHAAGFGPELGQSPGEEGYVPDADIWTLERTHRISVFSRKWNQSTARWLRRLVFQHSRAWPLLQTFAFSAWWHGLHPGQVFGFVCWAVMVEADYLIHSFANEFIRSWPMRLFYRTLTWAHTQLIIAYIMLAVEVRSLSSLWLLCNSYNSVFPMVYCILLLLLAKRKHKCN
Experiment: In vitro cell free human GOAT enzymatic assay
Format: biochemical
Conditions: GOAT-His/sf9 membrane preparation
Description: Human GOAT gene (Accession number: NM_001100916) is subcloned to pAN51 baculoviral expression vector. Baculovirus stock is prepared following the Bac-to-Bac Protocol provided by the vendor, Invitrogen, California, USA. Five mililiters of human GOAT baculoviral stock are added to 500 mL Sf9 cells in HyQ SFX-Insect™ media (HyClone catalog number SH30278.02) at the density of 1 × 10^6 cells per milliliter in a 2 L Erlenmeyer flask. The flask with human GOAT gene infected Sf9 cells is put on a plate shaker at 120 rpm at 28 °C for 48 hours. After 48 hours incubation, cells are centrifuged at 1,000xg for 10 min at 4 °C. The cell pellets are collected and stored at -80 °C in a freezer until ready for further processing.
One gram cell pellets are suspended in 9 mL chilled homogenization buffer (50 mM Tris-HCl, 250 mM sucrose, adjusted to pH 7.5 and sterile filtered through 0.2 µm Millipore filter). The cell suspension is transferred to a Dounce glass homogenizer. Cell pellets are homogenized with 40 strokes on ice. The homogenate is centrifuged at 3,000 rpm in a Beckman swing bucket rotor at 4 °C for 10 min to remove unbroken cells. The supernatant is collected and centrifuged at 40,000 xg for 1 hour at 4 °C. The resulting membrane pellet is suspended in the homogenization buffer using a Dounce glass homogenizer and stored at -20 °C in the freezer for the assay. For long term storage of the human GOAT enzyme membrane preparation, the suspended membrane is stored in a -80 °C freezer.
Prepare test compounds in DMSO to make up a 0.2 mM stock solution. Serially dilute the stock solution in DMSO to obtain a ten-point dilution curve with final compound concentrations ranging from 10 µM to 0.5 nM in a 96-well round-bottom plate. Prepare enzyme and substrate solutions in assay buffer (0.02% TWEEN™-20 in 50 mM Tris, pH 7.5/250 mM sucrose/1 mg/mL BSA/10 mM EDTA). Add diluted compound (1 µL) to each well of row A to N of a corresponding low protein binding 384 well plate. Add human GOAT substrate mix (10 µL), consisting of human desacyl-ghrelin-biotin (CPC Scientific Inc., 6.0 µM final), octanoyl-coenzyme A (CoA) (Sigma, 60 µM final) and an AG specific antibody (WO 2006/091381)(1.0 µg/mL final), to the compounds. Add GOAT-His/sf9 enzyme preparation, that has been prepared in assay buffer (9 µL), to each well of the plate containing substrate and test compounds resulting in a final concentration of 0.01 µg/mL to initiate the reaction. Incubate the mixture for 1 hour at RT on a gently rotating oscillator. Add 4M guanidine hydrochloride (20 µL) to all wells, mix, and incubate for 3 hours to stop the reaction.
Prepare ELISA plates (STREPTAVIDIN SPECTRAPLATE™ 384, Perkin Elmer) by blocking with 2% Heat-Inactivated FBS in PBS (40 µL) (Invitrogen) blocking buffer for 3 hours. Aspirate the blocking buffer from ELISA plate and add blocking buffer (23 µL) to columns 1-24, rows A-N. Reserve rows O and P for the acylghrelin standard curve. Add the reaction mix (2 µL) to the ELISA plates. Prepare a 10 point standard curve (biotin-labeled octanoyl-ghrelin) by serial 2X dilution in blocking buffer containing 0.2M Guanidine hydrochloride starting at 2.5 pM. Incubate the reaction mixture or biotin-labeled AG standard in the ELISA plate overnight at 4 °C. The following day, wash the plate 3× with wash buffer (0.1% TWEEN™-20/PBS, 100 µL per well in each wash cycle). […] Read plates at 450 nm using an ENVISION® Multilabel plate reader. […]

## Cc1nc(C(F)(F)F)nc(N)c1CCC1CCN(C(=O)[C@H](C)NC(=O)c2ccnn2C)CC1 [Example 2, N-[(1S)-2-[4-[2-[4-Amino-6-methyl-2-(trifluoromethyl)pyrimidin-5-yl]ethyl]-1-piperidyl]-1-methyl-2-oxo-ethyl]-2-methyl-pyrazole-3-carboxamide]
  IC20: 69.5 ± 0.6 nM
